Consider 9 compounds from patent publication US10004701B2, “Methods and compositions for treating infection” (UNIVERSITY OF ROCHESTER, priority 2012, dated 2018).

Where a name gives a salt, the structure may show the parent alone. Read-outs that look alike come from different tables or passages of the source.

Holding throughout (assay): AK assay 384-well format, Prestwick library screening
One assay has as its system E. faecium. The class given is cell-based, Enterococcus faecium. To be noted: Enterococcus faecium, 3 h, 50 μM final drug concentration.
The test system of assay [1] is S. aureus strain USA300-0114. It counts as cell-based, Staphylococcus aureus. The settings on record: Staphylococcus aureus, USA300, 3 h, 50 μM final drug concentration.
The subject of a further assay is K. pneumoniae. The class given is cell-based, Klebsiella pneumoniae. The settings on record: Klebsiella pneumoniae, 3 h, 50 μM final drug concentration.
The subject of assay [2] is A. baumannii strain 98-37-09. It counts as cell-based, Acinetobacter baumannii. To be noted: Acinetobacter baumannii, 983709, 3 h, 50 μM final drug concentration.
For a further assay, the system named is P. aeruginosa. The class given is cell-based, Pseudomonas aeruginosa. The settings on record: Pseudomonas aeruginosa, 3 h, 50 μM final drug concentration.
The test system of another assay is E. cloacae. It counts as cell-based, Enterobacter cloacae. To be noted: Enterobacter cloacae, 3 h, 50 μM final drug concentration.
Another assay concerns E. coli. It counts as cell-based, Escherichia coli. To be noted: Escherichia coli, 3 h, 50 μM final drug concentration.
Setting [3] is: planktonic E. faecium, 384-well, cutoff for positive-scoring molecules 3-fold increase, read-out: AK-based Prestwick Library Screening Results: E. faecium (increase in extracellular AK activity).
Setting [4] is: planktonic S. aureus, 384-well, cutoff for positive-scoring molecules 3-fold increase, read-out: AK-based Prestwick Library Screening Results: S. aureus (increase in extracellular AK activity).
[5] abbreviates: planktonic K. pneumoniae, 384-well, cutoff for positive-scoring molecules 3-fold increase, read-out: AK-based Prestwick Library Screening Results: K. pneumoniae (increase in extracellular AK activity).
Where [6] appears, read: planktonic A. baumannii, 384-well, cutoff for positive-scoring molecules 3-fold increase, read-out: AK-based Prestwick Library Screening Results: A. baumannii (increase in extracellular AK activity).
The mark [7] stands for this setting: planktonic P. aeruginosa, 384-well, cutoff for positive-scoring molecules 3-fold increase, read-out: AK-based Prestwick Library Screening Results: P. aeruginosa (increase in extracellular AK activity).
[8] abbreviates: planktonic E. cloacae, 384-well, cutoff for positive-scoring molecules 3-fold increase, read-out: AK-based Prestwick Library Screening Results: E. cloacae (increase in extracellular AK activity).
[9] abbreviates: planktonic E. coli, 384-well, cutoff for positive-scoring molecules 3-fold increase, read-out: AK-based Prestwick Library Screening Results: E. coli (increase in extracellular AK activity).
Setting [10] is: planktonic E. faecium, cutoff for positive-scoring molecules 3-fold increase, read-out: AK-based Prestwick Library Screening Results, E. faecium (increase in extracellular AK activity).
[11] abbreviates: planktonic S. aureus, cutoff for positive-scoring molecules 3-fold increase, read-out: AK-based Prestwick Library Screening Results, S. aureus (increase in extracellular AK activity).
Setting [12] is: planktonic K. pneumoniae, cutoff for positive-scoring molecules 3-fold increase, read-out: AK-based Prestwick Library Screening Results, K. pneumoniae (increase in extracellular AK activity).
Where [13] appears, read: planktonic A. baumannii, cutoff for positive-scoring molecules 3-fold increase, read-out: AK-based Prestwick Library Screening Results, A. baumannii (increase in extracellular AK activity).
Setting [14] is: planktonic P. aeruginosa, cutoff for positive-scoring molecules 3-fold increase, read-out: AK-based Prestwick Library Screening Results, P. aeruginosa (increase in extracellular AK activity).
[15] abbreviates: planktonic E. cloacae, cutoff for positive-scoring molecules 3-fold increase, read-out: AK-based Prestwick Library Screening Results, E. cloacae (increase in extracellular AK activity).
[16] abbreviates: planktonic E. coli, cutoff for positive-scoring molecules 3-fold increase, read-out: AK-based Prestwick Library Screening Results, E. coli (increase in extracellular AK activity).
[17] abbreviates: 384-well format, cutoff for positive-scoring molecules 3-fold increase, read-out: AK-based Prestwick Library Screening Results, E. faecium (increase in extracellular AK activity).
Setting [18] is: 384-well format, cutoff for positive-scoring molecules 3-fold increase, read-out: AK-based Prestwick Library Screening Results, S. aureus (increase in extracellular AK activity).
Where [19] appears, read: 384-well format, cutoff for positive-scoring molecules 3-fold increase, read-out: AK-based Prestwick Library Screening Results, K. pneumoniae (increase in extracellular AK activity).
[20] abbreviates: 384-well format, cutoff for positive-scoring molecules 3-fold increase, read-out: AK-based Prestwick Library Screening Results, A. baumannii (increase in extracellular AK activity).
Setting [21] is: 384-well format, cutoff for positive-scoring molecules 3-fold increase, read-out: AK-based Prestwick Library Screening Results, P. aeruginosa (increase in extracellular AK activity).
The mark [22] stands for this setting: 384-well format, cutoff for positive-scoring molecules 3-fold increase, read-out: AK-based Prestwick Library Screening Results, E. cloacae (increase in extracellular AK activity).
Setting [23] is: 384-well format, cutoff for positive-scoring molecules 3-fold increase, read-out: AK-based Prestwick Library Screening Results, E. coli (increase in extracellular AK activity).

Regarding `CCOC(=O)NNc1nncc2ccccc12` [Todralazine hydrochloride], the fold induction at 50 µM in the assay with E. faecium (setting [3]) was determined as 0.8; in assay [1] (setting [4]), 1.3; in the assay on K. pneumoniae (setting [5]), 1; in assay [2] (setting [6]) it was 1.1; with P. aeruginosa (setting [7]), 1.1; with E. cloacae (setting [8]), 1.7. Further, the fold induction at 50 µM in the assay with E. coli (setting [9]) amounted to 1.3.

With `CN(C)CCCOc1nn(Cc2ccccc2)c2ccccc12` [Benzydamine hydrochloride], the fold induction at 50 µM in the assay with E. faecium (setting [3]) worked out at 1.1; in assay [1] (setting [4]), 1.1; with K. pneumoniae (setting [5]) it was 1; in assay [2] (setting [6]) it was 1; with P. aeruginosa (setting [7]), 1.2; in the assay on E. cloacae (setting [8]), 1.2. In the assay with E. coli (setting [9]), the fold induction at 50 µM stood at 1.3.

Regarding `COc1cc(-c2ccc(=O)[nH]n2)ccc1OC(F)F` [Zardaverine], the fold induction at 50 µM with E. faecium (planktonic E. faecium, positive cutoff 3-fold increase, read-out: AK-based Prestwick library screening result, E. faecium (fold increase in extracellular AK activity)) came to 1; in assay [1] (planktonic S. aureus, positive cutoff 3-fold increase, read-out: AK-based Prestwick library screening result, S. aureus (fold increase in extracellular AK activity)), 0.6; in the assay on K. pneumoniae (planktonic K. pneumoniae, positive cutoff 3-fold increase, read-out: AK-based Prestwick library screening result, K. pneumoniae (fold increase in extracellular AK activity)), 0.7; in assay [2] (planktonic A. baumannii, positive cutoff 3-fold increase, read-out: AK-based Prestwick library screening result, A. baumannii (fold increase in extracellular AK activity)) it was 0.7; in the assay on P. aeruginosa (planktonic P. aeruginosa, positive cutoff 3-fold increase, read-out: AK-based Prestwick library screening result, P. aeruginosa (fold increase in extracellular AK activity)) it was 0.7; in the assay on E. cloacae (planktonic E. cloacae, positive cutoff 3-fold increase, read-out: AK-based Prestwick library screening result, E. cloacae (fold increase in extracellular AK activity)), 0.9. Further, the fold induction at 50 µM in the assay with E. coli (planktonic E. coli, […], read-out: AK-based Prestwick library screening result, E. coli (fold increase in extracellular AK activity)) came out at 0.6.

`COCCOC(=O)C1=C(C)NC(C)=C(C(=O)OC(C)C)C1c1cccc([N+](=O)[O-])c1` (stereo not drawn) [Nimodipine]: the fold induction at 50 µM in the assay with E. faecium (planktonic, cutoff for positive-scoring molecules 3-fold increase, read-out: AK-based Prestwick Library Screening Results, E. faecium (fold increase in extracellular AK activity)) is 1; in assay [1] (planktonic, cutoff for positive-scoring molecules 3-fold increase, read-out: AK-based Prestwick Library Screening Results, S. aureus (fold increase in extracellular AK activity)), 0.7; with K. pneumoniae (planktonic, cutoff for positive-scoring molecules 3-fold increase, read-out: AK-based Prestwick Library Screening Results, K. pneumoniae (fold increase in extracellular AK activity)) it was 0.7; in assay [2] (planktonic, cutoff for positive-scoring molecules 3-fold increase, read-out: AK-based Prestwick Library Screening Results, A. baumannii (fold increase in extracellular AK activity)), 1; with P. aeruginosa (planktonic, cutoff for positive-scoring molecules 3-fold increase, read-out: AK-based Prestwick Library Screening Results, P. aeruginosa (fold increase in extracellular AK activity)) it was 0.9; in the assay on E. cloacae (planktonic, cutoff for positive-scoring molecules 3-fold increase, read-out: AK-based Prestwick Library Screening Results, E. cloacae (fold increase in extracellular AK activity)) it was 1.4. For the same compound, in the assay on E. coli (planktonic, cutoff for positive-scoring molecules 3-fold increase, read-out: AK-based Prestwick Library Screening Results, E. coli (fold increase in extracellular AK activity)), the fold induction at 50 µM was found to be 0.9.

In the case of `COc1cc(N)c(Cl)cc1C(=O)NC1CCN(CCCOc2ccc(F)cc2)CC1OC` (stereo not drawn) [Cisapride], the fold induction at 50 µM with E. faecium (setting [10]) was found to be 0.9; in assay [1] (setting [11]), 0.6; in the assay on K. pneumoniae (setting [12]), 0.7; in assay [2] (setting [13]) it was 1.1; in the assay with P. aeruginosa (setting [14]), 0.9; in the assay on E. cloacae (setting [15]), 0.9. Further, the fold induction at 50 µM in the assay with E. coli (setting [16]) came out at 0.9.

For the compound `C=C1CC[C@H](O)C/C1=C/C=C1\CCC[C@]2(C)[C@@H]([C@H](C)/C=C/[C@H](C)C(C)C)CC[C@@H]12` [Calciferol], the fold induction at 50 µM in the assay on E. faecium (setting [10]) is 0.9; in assay [1] (setting [11]) it was 0.5; in the assay on K. pneumoniae (setting [12]) it was 0.7; in assay [2] (setting [13]), 0.7; with P. aeruginosa (setting [14]), 0.7; with E. cloacae (setting [15]), 0.7. In addition, the fold induction at 50 µM in the assay on E. coli (setting [16]) came to 0.8.

With `CCc1nc(N)nc(N)c1-c1ccc(Cl)cc1` [Pyrimethamine], the fold induction at 50 µM was found to be 1 with E. faecium (setting [17]); 0.7 in assay [1] (setting [18]); 0.7 in the assay on K. pneumoniae (setting [19]); 2.5 in assay [2] (setting [20]); 0.9 in the assay on P. aeruginosa (setting [21]); 1.3 in the assay on E. cloacae (setting [22]). Also, the fold induction at 50 µM in the assay with E. coli (setting [23]) turned out to be 1.4.

For `CC[C@@H](CO)NC(=O)[C@@H]1C=C2c3cccc4[nH]cc(c34)C[C@H]2N(C)C1` [Methylergometrine maleate], the fold induction at 50 µM with E. faecium (planktonic, […], read-out: AK-based Prestwick Library Screening Results, E. faecium (fold increase in extracellular AK activity)) was 0.9; in assay [1] (planktonic, […], read-out: AK-based Prestwick Library Screening Results, S. aureus (fold increase in extracellular AK activity)) it was 0.8; in the assay on K. pneumoniae (planktonic, […], read-out: AK-based Prestwick Library Screening Results, K. pneumoniae (fold increase in extracellular AK activity)), 1; in assay [2] (planktonic, […], read-out: AK-based Prestwick Library Screening Results, A. baumannii (fold increase in extracellular AK activity)) it was 0.9; in the assay with P. aeruginosa (planktonic, […], read-out: AK-based Prestwick Library Screening Results, P. aeruginosa (fold increase in extracellular AK activity)), 0.9; in the assay on E. cloacae (planktonic, […], read-out: AK-based Prestwick Library Screening Results, E. cloacae (fold increase in extracellular AK activity)), 1.6. Besides, in the assay with E. coli (planktonic, […], read-out: AK-based Prestwick Library Screening Results, E. coli (fold increase in extracellular AK activity)), the fold induction at 50 µM came out at 1.

Regarding `O=C(Nc1ccc([N+](=O)[O-])cc1Cl)c1cc(Cl)ccc1O` [Niclosamide], the fold induction at 50 µM in the assay on E. faecium (setting [17]) turned out to be 0.1; in assay [1] (setting [18]) it was 0.4; with K. pneumoniae (setting [19]), 0.1; in assay [2] (setting [20]), 0.2; in the assay with P. aeruginosa (setting [21]) it was 0.1; in the assay with E. cloacae (setting [22]) it was 0.5. Besides, the fold induction at 50 µM in the assay on E. coli (setting [23]) stood at 0.1.
